Assay results from EP4737449A1 (Changchun Genescience Pharmaceutical Co., Ltd., priority 2023, dated 2025).
Read-outs that look alike come from different tables or passages of the source.

Columns and labels:
p53-Y220C mutant protein = target: T1, p53-Y220C mutant protein (Homo sapiens, UniProt P04637, Y220C); test: In vitro DNA binding activity assay (TR-FRET); format: biochemical; conditions: concentration required to increase the binding activity of protein to DNA by 50%
T1 construct: The recombinant Y220C p53 DBD protein with his-tag
Outline: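 SC150, the compound concentration increasing p53-Y220C DNA binding by 50% relative to vehicle, came from background-corrected 665/615 nm TR-FRET ratios. His-tagged DBD and compound were preincubated 60 min at RT before biotin-DNA plus Eu-anti-His/streptavidin-d2 detection overnight in the dark.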

NUGC-3 cells = test: NUGC-3 cell proliferation assay (CTG, 7 days); format: cell-based, human; conditions: Homo sapiens, NUGC-3, 168 h
Procedure: The cells were cultured in strict accordance with ATCC requirements.
Cell culture medium: 1640 culture medium, 10% serum, 1% penicillin + streptomycin.
Culture conditions: 37°C, 95% air, 5% carbon dioxide.
Compounds (20 mM) were subjected to gradient dilution in DMSO: 10 gradients, 3-fold dilution, duplicate wells.
Positive and negative controls (100% dimethyl sulfoxide) were prepared.
The compounds that were gradient diluted with DMSO and positive and negative controls (1st and 2nd step), each 75 nL, were transferred to 384-well cell culture plates by Echo550.
The cells were washed twice with PBS, digested with trypsin, and centrifuged for cell counting.
The experiment can only be carried out when the cell viability is above 90%.
The cells were plated into 384-well cell culture plates, with 200 (NUGC-3) cells and 30 µL of culture medium per well.
The 384-well microplate was placed in a cell culture incubator for 7 days.
30 µL of CTG detection reagent was added to the 384-well microplate.
The 384-well microplate was incubated for 30 min at 37°C, 5% carbon dioxide in the dark.
The reading was performed by a multi-functional microplate reader Envision.
% Inhibition is calculated as follows: % Inhibition = 100−(Signalcmpd−SignalAve_BL)/(SignalAve_VC−SignalAve_BL)*100 [formula] • Signalcmpd: Average signal of the compound in the cell plate • Signalave_vc: Average signal of the negative control in the cell plate • Signalave_BL: Average signal of the blank wells in the cell plate
IC50 was calculated by fitting % inhibition and compound concentration logarithmically to a nonlinear regression (dose response - variable slope) using Graphpad 8.0. Table 2 IC50 of selected compounds in NUGC-3 cell proliferation assay

[1] = NUGC-3 cell proliferation, 7 days, CTG, read-out: IC50

| Structure (SMILES) | SC150 (p53-Y220C mutant protein) [nM] | IC50 (NUGC-3 cells; [1]) [nM] | IC50 (NUGC-3 cells) [nM] |
| --- | --- | --- | --- |
| CN1CC[C@@H](Nc2cccc3c(CC(F)(F)F)c(C#CCNC(=O)c4cnn(C(C)(C)C5CC5)c4N)nn23)[C@@H](F)C1 [Compound 290, 5-amino-1-(2-cyclopropylprop-2-yl)-N-[3-(7-{[(3S,4R)-3-fluoro-1-methylpiperidin-4-yl]amino}-3-(2,2,2-trifluoroethyl)pyrazolo[1,5-a]pyridin-2-yl)prop-2-yn-1-yl]-1H-pyrazole-4-carboxamide] | 11 | 355 | – |
| CC(C1CC1)n1ncc(C(=O)NCC#Cc2nn3c(N[C@@H]4CCN(C)C[C@@H]4F)cccc3c2CC(F)(F)F)c1N (stereo partly drawn) [Compound 291, 5-amino-1-(1-cyclopropylethyl)-N-[3-(7-{[(3S,4R)-3-fluoro-1-methylpiperidin-4-yl]amino}-3-(2,2,2-trifluoroethyl)pyrazolo[1,5-a]pyridin-2-yl)prop-2-yn-1-yl]-1H-pyrazole-4-carboxamide] | 7 | 249 | – |
| CN1CC[C@@H](Nc2cccc3c(CC(F)(F)F)c(C#CCNC(=O)c4cnn(CC5CC5)c4N)nn23)[C@@H](F)C1 [Compound 292] | 8 | – | 214 |
| CN1CC[C@@H](Nc2cccc3c(CC(F)(F)F)c(C#CCNC(=O)c4ccc(N)nc4)nn23)[C@@H](F)C1 [Compound 296, 6-amino-N-[3-(7-{[(3S,4R)-3-fluoro-1-methylpiperidin-4-yl]amino}-3-(2,2,2-trifluoroethyl)pyrazolo[1,5-a]pyridin-2-yl)prop-2-yn-1-yl]nicotinamide] | 21 | 1230 | – |
| COC(C)(C)Cn1ccc(C(=O)NCC#Cc2nn3c(N[C@@H]4CCN(C)C[C@@H]4F)cccc3c2CC(F)(F)F)c1 [Compound 300, N-[3-(7-{[(3S,4R)-3-fluoro-1-methylpiperidin-4-yl]amino}-3-(2,2,2-trifluoroethyl)pyrazolo[1,5-a]pyridin-2-yl)prop-2-yn-1-yl]-1-(2-methoxy-2-methylpropyl)-1H-pyrrole-3-carboxamide] | 12 | 411 | – |
| CN1CC[C@@H](Nc2cccc3c(CC(F)(F)F)c(C#CCNC(=O)c4ccn5c4COCC5)nn23)[C@@H](F)C1 [Compound 301, N-[3-(7-{[(3S,4R)-3-fluoro-1-methylpiperidin-4-yl]amino}-3-(2,2,2-trifluoroethyl)pyrazolo[1,5-a]pyridin-2-yl)prop-2-yn-1-yl]-3,4-dihydro-1H-pyrrolo[2,1-c][1,4]oxazine-8-carboxamide] | 27 | 1190 | – |
| CN1CC[C@@H](Nc2cccc3c(CC(F)(F)F)c(C#CCNC(=O)c4cnn(C5CC5)c4N)nn23)[C@@H](F)C1 [Compound 305, 5-amino-N-[3-(7-{[(3S,4R)-3-fluoro-1-methylpiperidin-4-yl]amino}-3-(2,2,2-trifluoroethyl)pyrazolo[1,5-a]pyridin-2-yl)prop-2-yn-1-yl]-1-(cyclopropyl)-1H-pyrazole-4-carboxamide] | 7 | 193 | – |
| CC(C)n1ncc(C(=O)NCC#Cc2nn3c(N[C@@H]4CCN(C)C[C@@H]4F)cccc3c2CC(F)(F)F)c1N [Compound 306, 5-amino-N-[3-(7-{[(3S,4R)-3-fluoro-1-methylpiperidin-4-yl]amino}-3-(2,2,2-trifluoroethyl)pyrazolo[1,5-a]pyridin-2-yl)prop-2-yn-1-yl]-1-isopropyl-1H-pyrazole-4-carboxamide] | 6 | 142 | – |
| [2H]C([2H])([2H])N1CC[C@@H](Nc2cccc3c(CC(F)(F)F)c(C#CCNC(=O)c4cnn(C(C)(C)C)c4N)nn23)[C@@H](F)C1 [Compound 311, 5-amino-1-(tert-butyl)-N-[3-(7-{[(3S,4R)-3-fluoro-1-(methyl-d3)piperidin-4-yl]amino}-3-(2,2,2-trifluoroethyl)pyrazolo[1,5-a]pyridin-2-yl)prop-2-yn-1-yl]-1H-pyrazole-4-carboxamide] | 4 | 173 | – |
| CN1CC[C@@H](Nc2cccc3c(CC(F)(F)F)c(C#CCNC(=O)c4cc(F)n(C)c4)nn23)[C@@H](F)C1 [Compound 312, 5-fluoro-N-[3-(7-{[(3S,4R)-3-fluoro-1-methylpiperidin-4-yl]amino}-3-(2,2,2-trifluoroethyl)pyrazolo[1,5-a]pyridin-2-yl)prop-2-yn-1-yl]-1-methyl-1H-pyrrole-3-carboxamide] | 19 | 1460 | – |
| CN1CC[C@@H](Nc2cccc3c(CC(F)(F)F)c(C#CCNC(=O)c4ccn(C5(C)CC5)c4)nn23)[C@@H](F)C1 [Compound 313, N-[3-(7-{[(3S,4R)-3-fluoro-1-methylpiperidin-4-yl]amino}-3-(2,2,2-trifluoroethyl)pyrazolo[1,5-a]pyridin-2-yl)prop-2-yn-1-yl]-1-(1-methylcyclopropyl)-1H-pyrrole-3-carboxamide] | 28 | 1370 | – |
| CN1CC[C@@H](Nc2cccc3c(CC(F)(F)F)c(C#CCNC(=O)c4ccc(N5CCC5)nc4)nn23)[C@@H](F)C1 [Compound 314, 6-(azetidin-1-yl)-N-[3-(7-{[(3S,4R)-3-fluoro-1-methylpiperidin-4-yl]amino}-3-(2,2,2-trifluoroethyl)pyrazolo[1,5-a]pyridin-2-yl)prop-2-yn-1-yl]-3-nicotinamide] | 35 | 1200 | – |
| CN1CC[C@@H](Nc2cccc3c(CC(F)(F)F)c(C#CCNC(=O)c4ccc(N5CCCC5)nc4)nn23)[C@@H](F)C1 [Compound 315, N-[3-(7-{[(3S,4R)-3-fluoro-1-methylpiperidin-4-yl]amino}-3-(2,2,2-trifluoroethyl)pyrazolo[1,5-a]pyridin-2-yl)prop-2-yn-1-yl]-6-(pyrrolidin-1-yl)nicotinamide] | 52 | 1240 | – |
| CN1CC[C@@H](Nc2cccc3c(CC(F)(F)F)c(C#CCNC(=O)c4ccc(N5CCCCC5)nc4)nn23)[C@@H](F)C1 [Compound 316, N-[3-(7-{[(3S,4R)-3-fluoro-1-methylpiperidin-4-yl]amino}-3-(2,2,2-trifluoroethyl)pyrazolo[1,5-a]pyridin-2-yl)prop-2-yn-1-yl]-6-(piperidin-1-yl)nicotinamide] | 97 | 2160 | – |
| Cc1cc(C(=O)NCC#Cc2nn3c(N[C@@H]4CCN(C)C[C@@H]4F)cccc3c2CC(F)(F)F)[nH]c1C [Compound 317, N-[3-(7-{[(3S,4R)-3-fluoro-1-methylpiperidin-4-yl]amino}-3-(2,2,2-trifluoroethyl)pyrazolo[1,5-a]pyridin-2-yl)prop-2-yn-1-yl]-4,5-dimethyl-1H-pyrrole-2-carboxamide] | 44 | 1290 | – |
| Cc1nc(C(=O)NCC#Cc2nn3c(N[C@@H]4CCN(C)C[C@@H]4F)cccc3c2CC(F)(F)F)cn1C [Compound 318, N-[3-(7-{[(3S,4R)-3-fluoro-1-methylpiperidin-4-yl]amino}-3-(2,2,2-trifluoroethyl)pyrazolo[1,5-a]pyridin-2-yl)prop-2-yn-1-yl]-1,2-dimethyl-1H-imidazole-4-carboxamide] | 59 | 1700 | – |
| CN1CC[C@@H](Nc2cccc3c(CC(F)(F)F)c(C#CCNC(=O)c4cn(C)cn4)nn23)[C@@H](F)C1 [Compound 319, N-[3-(7-{[(3S,4R)-3-fluoro-1-methylpiperidin-4-yl]amino}-3-(2,2,2-trifluoroethyl)pyrazolo[1,5-a]pyridin-2-yl)prop-2-yn-1-yl]-1-methyl-1H-imidazole-4-carboxamide] | 41 | 1370 | – |
| CC(C)n1cnc(C(=O)NCC#Cc2nn3c(N[C@@H]4CCN(C)C[C@@H]4F)cccc3c2CC(F)(F)F)c1 [Compound 320, N-[3-(7-{[(3S,4R)-3-fluoro-1-methylpiperidin-4-yl]amino}-3-(2,2,2-trifluoroethyl)pyrazolo[1,5-a]pyridin-2-yl)prop-2-yn-1-yl]-1-isopropyl-1H-imidazole-4-carboxamide] | 28 | 1560 | – |
| CN1CC[C@@H](Nc2cccc3c(CC(F)(F)F)c(C#CCNC(=O)c4cc(Cl)n(C)c4)nn23)[C@@H](F)C1 [Compound 326, 5-chloro-N-(3-(7-{[(3S,4R)-3-fluoro-1-methylpiperidin-4-yl]amino}-3-(2,2,2-trifluoroethyl)pyrazolo[1,5-a]pyridin-2-yl)prop-2-yn-1-yl)-1-methyl-1H-pyrrole-3-carboxamide] | 28 | 1180 | – |
| CN1CC[C@@H](Nc2cccc3c(CC(F)(F)F)c(C#CCNC(=O)c4ccc(N(C)C)nc4)nn23)[C@@H](F)C1 [Compound 328, 6-dimethylamino-N-[3-(7-{[(3S,4R)-3-fluoro-1-methylpiperidin-4-yl]amino}-3-(2,2,2-trifluoroethyl)pyrazolo[1,5-a]pyridin-2-yl)prop-2-yn-1-yl]pyridine-3-carboxamide] | 30 | 1210 | – |
